Where “and” joins values, the source holds several entries; their conditions need not be identical. Equal entries are not always repeated. Where two headings read alike, the source gives them in different places. Marks after values point to notes of the source that are not given here. Some results are limits rather than exact numbers.

For series [1], the system named is A549 (human lung carcinoma). The series can be described thus: In vitro cytotoxicity, MTT test. The format is cell-based. The conditions noted are these: Homo sapiens, A549, 72 h, read-out: Cytotoxicity IC50, A549. The method, then:
(§1) Anticancer activity of selenopheno[h]chromenes was tested in vitro using cytotoxicity assay. […] About 2-9·10^4 cells/mL (depending on line nature) were placed in 96-well plates immediately after compounds were added to the wells. Untreated cells were used as a control. The plates were incubated for 72 h, 37° C., 5% CO2. The number of surviving cells was determined using 3-(4,5-dimethylthiazol-2-yl)-2,5-diphenyltetrazolinium bromide (MTT). MTT-test: after incubating culture medium was removed and 200 μL fresh medium with 10 mM HEPES was added in each well of the plate, than 20 μL MTT (2 mg/mL in HBSS) was added. After incubation (3 hr, 37° C., 5% CO2), the medium with MTT was removed and 200 μL DMSO were added at once to each sample. The samples were tested at 540 nm on Anthos HT II photometer.

In the next series the test system is CCL-8 (mouse sarcoma). The series can be described thus: In vitro cytotoxicity, MTT test. The format is cell-based. To be noted: 72 h, read-out: Cytotoxicity IC50, CCL-8. The method, then: as §1
In series [2] the test system is HT-1080 (human fibrosarcoma). The experiment in a line: In vitro cytotoxicity, MTT test. The series is classed as cell-based. The conditions noted are these: read-out: Cytotoxicity IC50, HT-1080. The method, then:
as §1

Series [3] relates to HepG2 (human hepatocellular carcinoma). The experiment in a line: In vitro cytotoxicity, MTT test. The format is cell-based. The conditions noted are these: read-out: Cytotoxicity IC50, HepG2. The procedure:
as §1

For series [4], the system named is MCF-7 (human breast adenocarcinoma, estrogen-positive). The experiment in a line: In vitro cytotoxicity, MTT test. The series is classed as cell-based. The conditions noted are these: read-out: Cytotoxicity IC50, MCF-7. The method, then: as §1
For series [5], the system named is MDA-MB-435s (human melanoma). The experiment in a line: In vitro cytotoxicity, MTT test. The format is cell-based. To be noted: 72 h, read-out: Cytotoxicity IC50, MDA-MB-435s. The method, then: as §1
The test system of series [6] is MES-SA (human uterus sarcoma). The experiment in a line: In vitro cytotoxicity, MTT test. The format is cell-based. To be noted: 72 h, read-out: Cytotoxicity IC50, MES-SA. The procedure:
as §1

In another series the test system is MG-22A (mouse hepatoma). The experiment in a line: In vitro cytotoxicity, MTT test. The format is cell-based. To be noted: 72 h, read-out: Cytotoxicity IC50, MG-22A. The procedure:
as §1

The subject of series [7] is SH-SY5Y (human neuroblastoma). The experiment in a line: In vitro cytotoxicity, MTT test. The series is classed as cell-based. The conditions noted are these: Homo sapiens, SH-SY5Y, 72 h, read-out: Cytotoxicity IC50, SHSY5Y. The procedure:
as §1

The nature of series [8]: Basal cytotoxicity test, Neutral Red Uptake (NRU) assay. The series is classed as cell-based. To be noted: for LD50 at 24 h: mouse, po, acute oral LD50 calculated from 3T3 NRU IC50 by regression formula, read-out: Basal cytotoxicity Estimated* LD50; for IC50 at 24 h: normal mouse embryo fibroblasts, read-out: Cytotoxicity IC50, 3T3. The method, then:
(§2) In parallel, the borderline concentration relevant to the highest tolerated dose has been determined for each compound using the NIH 3T3 (mouse embryo fibroblasts) cell line and the basal cytotoxicity obtained has then been used to predict the starting doses for in vivo acute oral LD50 values in rodents.
(§3) the Neutral Red Uptake (NRU) assay was performed according to the standard protocol of Stokes modified by the NICEATM-ECVAM validation study. The NRU cytotoxicity assay procedure is based on the ability of viable cells to incorporate and bind Neutral Red, a supravitally dye. Balb/c 3T3 (Mouse Swiss Albino embryo fibroblast) cells (9000 cells/well) were placed into 96-well plates for 24 h in Dulbecco's modified Eagle's (DMEM) medium containing 5% fetal bovine serum. The cells were then exposed to the test compounds over a range of […] concentrations (1000, 316, 100, 31, 10, 3, 1 μg/ml) for 24 h. Untreated cells were used as a control. After 24 h, the medium was removed from all plates. Then, 250 μL of Neutral Red solution were added (0.05 mg/mL NR in DMEM 24 h pre-incubated at 37° C. and then filtered before use through 0.22-μm syringe filter). Plates were incubated for 3 h and then cells were washed three times with PBS. The dye within viable cells was released by extraction with a mixture of acetic acid, ethanol and water (1:50:49). Absorbance of Neutral Red was measured using a spectrophotometer multiplate reader (TECAN, Infinite M1000) at 540 nm. The percentage of living cells was calculated using the formula: OD (treated cells)*100/OD (control cells). The IC50 values were calculated using the programme Graph Pad Prism® 3.0.
(§4) Data from the in vitro tests were used for estimating the starting dose for acute oral systemic toxicity tests in rodents. […] The value is recalculated to mg/kg and compounds are evaluated in accordance with four toxicity categories: category 1: LD50≤5 mg/kg (highly toxic); category 2: 5<LD50≤50 mg/kg (moderately toxic); category 3: 50<LD50≤300 mg/kg (slightly toxic); category 4: 300<LD50≤2 000 mg/kg (practically non-toxic).

The test system of series [9] is 3T3 (mouse embryo fibroblasts). The series is described as above. The series is classed as cell-based. The method, then: as §2, §3, §4
Series [10] relates to mouse sarcoma CCRF-S180 II (CCL-8). The series can be described thus: Mouse non-metastatic cancer model, sarcoma CCL-8 s.c. in ICR mice. The format is in vivo. To be noted: s.c. Day 1, 2, 3, 4, 7, 8, 9, 10, 11; dose 5 mg/kg, total dose 45 mg/kg. The method, then:
Six-week-old female ICR and BALB/c mice were purchased from the University of Tartu Laboratory Animal Centre (Estonia). The mice were housed five to a cage, and under standard conditions (21-23° C., 12 h light: dark cycle), fed ad libitum (R3 diet, Lactamin AB, Kimstad, Sweden) and observed daily. The experimental procedures involving experimental animals were carried out in accordance with the guidelines of the European Community, local laws and policies, and were approved by the Latvian Animal Protection Ethical Committee, the Food and Veterinary Service, Riga, Latvia.
In vivo studies were performed utilizing the mouse sarcoma CCRF-S180 II (CCL-8) and Lewis lung carcinoma (LLC) cell line. All cell lines were purchased from ATCC. The cells were grown in Dulbecco's modified Eagle's medium (Sigma) supplemented with 10% fetal calf serum (Sigma).
ICR mice were subcutaneously inoculated in the back with 5×10^6 CCL-8 cells and BALB/c mice were inoculated with 1×10^6 LLC (Lewis Lung Carcinoma) cells, which were suspended in 0.1 mL of PBS on day zero of the study. The compounds dissolved in DMSO and then in 0.1 mL water (DMSO final concentration 1%) were injected s.c. Mice in the untreated group were similarly given doses of 0.1 mL of water with DMSO. Tumor volume (tumor volume V=[…], a is maximal and b the minimal tumor diameter) was recorded twice per week. The mice were examined every other day for diseases including appearance, weight and behavior. The mice were sacrificed at day 16 of the experiment by decapitation after ketamine/xylazine anesthesia.

A further series relates to malignant tumor cells. The series can be described thus: In vitro cytotoxicity on monolayer tumor cell lines (panel, summary in words). The series is classed as cell-based. To be noted: summary of Table 1. The procedure:
Anticancer activity of selenopheno[h]chromenes was tested in vitro using cytotoxicity assay. Thus, monolayer tumor cell lines MDA-MB-435s (human melanoma), MCF-7 (human breast adenocarcinoma, estrogen-positive), MES-SA (human uterus sarcoma), HT-1080 (human fibrosarcoma), A549 (human lung carcinoma), SH-SY5Y (human neuroblastoma), CCL-8 (mouse sarcoma), MG-22A (mouse hepatoma), and HepG2 (human hepatocellular carcinoma) were cultured in standard medium DMEM (Dulbecco's modified Eagle's medium) (“Sigma”) supplemented with 10% fetal bovine serum (“Sigma”). About 2-9·10^4 cells/mL (depending on line nature) were placed in 96-well plates immediately after compounds were added to the wells. Untreated cells were used as a control. The plates were incubated for 72 h, 37° C., 5% CO2. The number of surviving cells was determined using 3-(4,5-dimethylthiazol-2-yl)-2,5-diphenyltetrazolinium bromide (MTT). MTT-test: after incubating culture medium was removed and 200 μL fresh medium with 10 mM HEPES was added in each well of the plate, than 20 μL MTT (2 mg/mL in HBSS) was added. After incubation (3 hr, 37° C., 5% CO2), the medium with MTT was removed and 200 μL DMSO were added at once to each sample. The samples were tested at 540 nm on Anthos HT II photometer.

A further series relates to 4T1 carcinoma cells. The series can be described thus: 4T1 model of lung metastasis (tail vein) in Balb/c mice. The conditions noted are these: for Spleen weight increase: 4T1 i.v., control with tumor +147%; for % of the total area occupied by metastases, % (control = 100) / % of the total area occupied by metastases, Mean ± SD: s.c., days 1, 4, 7, 9, 11, 14. The format is in vivo, mouse. The method, then: Compounds were administered s.c. at 1, 4, 7, 9, 11 and 14th days. 4T1 cells (10,000/0.1 ml PBS) were injected i.v. into syngeneic mice. The metastasis at day 16 are shown for each mouse, and averages are provided for illustration.
Balb/c mice were injected with 100,000 4T1 […] cancer cells into the tail vein and treatment started 24 hr later with subcutaneous (s.c.), intraperitoneal (i.p.) injections or oral administration (p.o.) of compounds according to the following scheme: 1, 4, 7, 9, 11 and 14th days in dose 20 or 40 mg/kg. Compounds were dissolved in DMSO and the solution were diluted by water (DMSO final concentration <1%). Mice in the control group were similarly given doses of 0.1 mL of water with DMSO. Twenty-one days later, all mice were anesthetized with ketamine/xylazine and euthanized, the mice were sacrificed spleens were excised from the mice and weighed. In each experiment, mice were weighed twice weekly.
(Lewis et al, Cancer Res, 2005, 65) Pulmonary metastases were enumerated by intra-tracheal injection of India ink (15% India Ink, 85% water, 3 drops NH4OH/100 ml). India ink injected lungs were washed in Feket's solution (300 ml 70% EtOH, 30 ml 37% formaldehyde, 5 ml glacial acetic acid) and then placed fresh Feket's solution overnight. […] White tumor nodules against a black lung background were measured.

For `COC(=O)c1cc2ccc3c(Br)c(CN4CCOCC4)[se]c3c2oc1=O` [Compound I-9, Methyl 7-bromo-8-(morpholinomethyl)-2-oxo-2H-selenopheno[3,2-h]chromene-3-carboxylate], the IC50 in [1] (MTT, 72 h) came to 86 ± 6 µM; in the series with CCL-8 (mouse sarcoma) (MTT), 84 ± 6 µM; in series [2] (HT-1080, MTT, 72 h), 86 ± 6 µM; in series [3] (HepG2, MTT, 72 h), 90 ± 6 µM; in [4] (MCF7, MTT, 72 h), 81 ± 6 µM; in series [5] (MTT) it was 67 ± 8 µM. Also, the half-inhibitory concentration (IC50) is 54 ± 7 µM in [6] (MTT), 48 ± 3 µM with MG-22A (mouse hepatoma) (MTT) and 46 ± 9 µM in series [7] (MTT). Also, the LD50 at 24 h in series [8] is 2400 µmol/kg and 1250 mg/kg. Moreover, the IC50 at 24 h in series [8] turned out to be 56 ± 3 µM. Moreover, the “Toxicity against normal NIH 3T3 cells” value in series [9] is “the most toxic among studied chromenes”. Besides, the “Anticancer activity in vivo (inhibition, %), CCL-8 tumor volume” value in [10] was 38** %. The “Cytotoxicity on cancer cell lines” value in the series with malignant tumor cells is “medium cytotoxicity”.

As for `CN1CCN(Cc2[se]c3c(ccc4cc(C(=O)O)c(=O)oc43)c2Br)CC1.Cl` [Compound I-15, 7-Bromo-8-/(4-methylpiperazin-1-yl/methyl)-2-oxo-2H-selenopheno[3,2-h]chromene-3-carboxylic acid hydrochloride], the IC50 was > 192 µM in series [1]; > 122 µM in the series with CCL-8 (mouse sarcoma); > 192 µM in [2] (HT-1080, 72 h); > 192 µM in series [3] (HepG2, 72 h); > 192 µM in series [4] (MCF7, 72 h); > 122 µM in series [5]. The results for the IC50 (in series [6]; in the series on MG-22A (mouse hepatoma); in series [7]) were > 117 µM, 186 ± 7 µM and > 192 µM, respectively. The LD50 at 24 h in [8] was 3200 µmol/kg and 1670 mg/kg. Besides, the IC50 at 24 h in series [8] turned out to be 192 ± 7 µM. Further, the Spleen weight increase with 4T1 carcinoma cells (dose 20 mg/kg) is recorded as 55%; with 4T1 carcinoma cells (dose 40 mg/kg) it was 14%. Also, the “Prevention of formation of 4T1 carcinoma lung metastasis” value in the series on 4T1 carcinoma cells (five mice per group) stood at 98%. For the same compound, the “% of the total area occupied by metastases, % (control = 100)” value is 4* % in the series with 4T1 carcinoma cells (20 mg/kg) and 1* % in the series with 4T1 carcinoma cells (40 mg/kg). The “% of the total area occupied by metastases, Mean ± SD” value is given as 2 ± 2% with 4T1 carcinoma cells (20 mg/kg, control 50 ± 33) and 0 ± 1% with 4T1 carcinoma cells (40 mg/kg). Further, in the series on malignant tumor cells, the “Cytotoxicity on cancer cell lines” value is listed as “low toxic to the cancer cell lines”.

The record behind these values is patent publication US10561681B2, “Antimetastatic 2H-selenopheno[3,2-h]chromenes, synthesis thereof, and methods of using same agents” (Latvian Institute of Organic Synthesis, priority 2016, dated 2020).
